Results published in US12728156B2, “Tumor cell-derived exosomes and method of treating colorectal cancer” (REGENTS OF THE UNIVERSITY OF MINNESOTA, priority 2020, dated 2026).

How the values were obtained:
T cells = assay: T cell depletion in naïve mice; format: in vivo
Procedure: FIGS. 23A-23D show the T cell depleting effects of 5-FU and anti-CD3 treatment. Related to FIGS. 14 and 16-18.
We tested the effects of 5-FU treatment and 5-FU and anti-4-1BB combination treatment on T cell depletion in vivo. Intraperitoneal administration of anti-CD3 treatment (clone: 17A2, BioXcell, 5 mg/kg every 3 days) was given to induce T cell depletion in mice. One dose of 5-FU (150 mg/kg) or 5-FU (150 mg/kg) and anti-4-1BB (5 mg/kg) combination treatment was given intraperitoneally in naïve mice. Mice were sampled on days 2, 4, 7, and 9 after treatment for quantifying T cells in lymph nodes, spleen, bone marrow, and blood circulation.

CT26 tumors = assay: Mass cytometry immune profiling of treated CT26 tumors; format: in vivo, mice
Text: FIGS. 18A-18I show the tumor immunological response to 5-FU and anti-4-1BB treatments in CT26 tumors. […] PD-L1, Ki-67, CD80, and CD86 expression were quantified in whole tumor tissue. […] See also FIGS. 25-27.
FIGS. 27A-27H show the tumor immunological response to 5-FU and anti-PD-1 treatments in CT26 tumors. Related to FIG. 18.
Tumor samples were collected and digested using standard flow cytometry procedure. A total of 3 million single cells were used for each mass cytometry staining. In brief, the single cell pellets were first incubated with Cell-ID Cisplatin with a final concentration of 5 μM for 5 min at RT to identify dead cells. Cells were then washed and blocked by Fc-receptor blocking solution. Cell membrane staining was then performed with metal-conjugated antibodies for 30 min at RT. After staining, cells were fixed and permeabilized. The intracellular staining antibodies were then added and incubated for 45 min at RT. Finally, cells were labeled with 1 ml 1,000× diluted 125 μM Cell-ID intercalator-Ir to stain all cells in MaxPar Fix and Perm Buffer overnight at 4° C. EQ Four Element Calibration Beads with the reference EQ passport P13H2302 were added to each staining tube right before data acquisition by a CyTOF 2 mass cytometer. The mass cytometry data were then normalized and exported for gating on alive single cells, which were then imported to the Cytobank software. A t-SNE analysis was performed with default parameters (perplexity, 30; iterations, 1,000) on all cell types in tumor samples.

CT26 and MC38 tumors = assay: Established tumor model, 5-FU and anti-4-1BB schedules; settings: monotherapy
[1] = 5-FU toxicity evaluation (body weight, diarrhea score); format: in vivo, mice; settings: monotherapy
Procedure: FIGS. 24A-24D show the side effects of different treatments. Related to FIG. 16. FIGS. 24A-24B show mouse body weight, which was measured on day 12, 24, and 32 during treatment. […] FIGS. 24C-24D show the results of a diarrhea assessment, which was performed at the endpoint of mice follow-up to evaluate the side effects on mouse intestine.
Toxicity is a primary concern for cancer treatments, especially in combination therapy. We took this into account by evaluating the side effects of each treatment.
We recorded animal body weight and diarrhea scores after treatments. Mice were weighed on day 12, 24, and 32 after treatment. The diarrhea score was assessed at the endpoint of each treatment by using a 4-point scoring system: 0=normal stool; 1=slight diarrhea (soft formed stool without perianal staining of the coat); 2=moderate diarrhea (unformed stool with moderate perianal staining of the coat); and 3=severe diarrhea (watery stool with severe perianal staining of the coat) (Song et al., 2013).

IL-2 production = assay: Jurkat-Raji conjugation system co-cultured with human CRC derived organoids; format: cell-based; settings: EVs secretion blocked in the co-culture system
Procedure: miR-424 levels were analyzed across different samples, including tumor cells, immune cells, and EVs (FIG. 3A). To determine whether EVs can be up-taken by T-cells and DCs, CT26-WT cell line-derived EVs were stained with Dio dye and incubated with mouse naïve T-cells and DCs. Images taken using confocal microscopy confirmed the presence of Dio labeled EVs inside the T-cells and DCs (FIG. 3B). Next, CT26 tumor cells were co-cultured with naïve T-cells and DCs, which lead to a significant increase in miR-424 levels in both T-cells and DCs (FIG. 3C). Importantly, this increase in miR-424 could be neutralized by blocking the production of EVs in the co-culture system using GW4869 (FIG. 3C). To determine whether this tumor-derived EVs were being engulfed by the immune cells, CD63-GFP transfected CT26 tumor cells were injected into mice to establish a subcutaneous tumor model. […] To this end, T-cells and DCs were isolated from the spleens of healthy mice, and of mice with wild-type tumors or miR-424 knockout (KO) tumors using flow cytometry sorting. miR-424 level was measured in the sorted T-cells and DCs by qPCR. […]
The Jurkat-Raji cells conjugation system was used for understanding the impacts of human tumor organoid-derived EVs on co-stimulation as well. […] Concentration of IL-2 was quantified in the co-culture system.

[2] = system: miR-424 levels in T-cells and DCs; assay: CT26 tumor cells co-cultured with naïve T-cells and DCs, miR-424 level; format: cell-based, mouse; settings: co-culture with CT26 tumor cells; EV production blocked
Procedure: miR-424 levels were analyzed across different samples, including tumor cells, immune cells, and EVs (FIG. 3A). To determine whether EVs can be up-taken by T-cells and DCs, CT26-WT cell line-derived EVs were stained with Dio dye and incubated with mouse naïve T-cells and DCs. Images taken using confocal microscopy confirmed the presence of Dio labeled EVs inside the T-cells and DCs (FIG. 3B). Next, CT26 tumor cells were co-cultured with naïve T-cells and DCs, which lead to a significant increase in miR-424 levels in both T-cells and DCs (FIG. 3C). Importantly, this increase in miR-424 could be neutralized by blocking the production of EVs in the co-culture system using GW4869 (FIG. 3C). To determine whether this tumor-derived EVs were being engulfed by the immune cells, CD63-GFP transfected CT26 tumor cells were injected into mice to establish a subcutaneous tumor model. […] Next, we sought to determine whether these effects could be eliminated by knocking out miR-424 in tumors. To this end, T-cells and DCs were isolated from the spleens of healthy mice, and of mice with wild-type tumors or miR-424 knockout (KO) tumors using flow cytometry sorting. miR-424 level was measured in the sorted T-cells and DCs by qPCR. […] Next, to study the impact of EV miR-424 expression on T-cell co-stimulation, the Jurkat cell and Raji cell conjugation assays were used. […]

Structure (SMILES)	T cell depletion (T cells)	time to recovery of the T cell population (T cells; after 5-FU treatment)	frequency of MDSCs (CT26 tumors; 5-FU monotherapy and combination treatment)	CD80 expression and MDSCs in tumor tissue (CT26 tumors; 5-FU treatment)	T-cell population in the tumor microenvironment (CT26 tumors; 5-FU treatment)	tumor growth and survival time (CT26 and MC38 tumors)	side effects [1]	suppression of IL-2 production by organoids (IL-2 production)	increase in miR-424 levels in T-cells and DCs [2]
O=c1[nH]cc(F)c(=O)[nH]1 [5-FU, 5-fluorouracil]	depleted T cells in lymphatic organs, blood circulation, and bone marrow	around 9 days	decreased	upregulated CD80 expression and depleted MDSCs	suppressed the T-cell population	delayed tumor development	severe body weight loss and diarrhea		
O=C(/C=C/c1ccc(/C=C/C(=O)Nc2ccc(C3=NCCN3)cc2)cc1)Nc1ccc(C2=NCCN2)cc1 [GW4869]								neutralized	neutralized
